Key:
Assay type in all cases: in vivo
[1] = test system: barnyardgrass (Echinochloa crus-galli); assay: Test B flooded paddy test, barnyardgrass; settings: applied to paddy water at 2-leaf stage, 13 to 15 d, scale 0 no effect to 100 complete control
Experimental: (§1) Plant species in the flooded paddy test selected from rice (Oryza sativa), sedge, umbrella (small-flower umbrella sedge, Cyperus difformis), ducksalad (Heteranthera limosa), and barnyardgrass (Echinochloa crus-galli) were grown to the 2-leaf stage for testing. At time of treatment, test pots were flooded to 3 cm above the soil surface, treated by application of test compounds directly to the paddy water, and then maintained at that water depth for the duration of the test. Treated plants and controls were maintained in a greenhouse for 13 to 15 d, after which time all species were compared to controls and visually evaluated. Plant response ratings, summarized in Table B, are based on a scale of 0 to 100 where 0 is no effect and 100 is complete control. A dash (-) response means no test result.

[2] = test system: ducksalad (Heteranthera limosa); assay: Test B flooded paddy test, ducksalad; settings: applied to paddy water at 2-leaf stage, 13 to 15 d, scale 0 no effect to 100 complete control
Experimental: as §1

rice (Oryza sativa) = assay: Test B flooded paddy test, rice; settings: applied to paddy water at 2-leaf stage, 13 to 15 d, scale 0 no effect to 100 complete control
Experimental: as §1

[3] = test system: sedge, umbrella (small-flower umbrella sedge, Cyperus difformis); assay: Test B flooded paddy test, umbrella sedge; settings: applied to paddy water at 2-leaf stage, 13 to 15 d, scale 0 no effect to 100 complete control
Experimental: as §1

[4] = test system: barnyardgrass (Echinochloa crus-galli); assay: Test A preemergence, barnyardgrass; settings: visual rating after approx. 10 d, 0 to 100 scale, 0 no effect, 100 complete control
Description: (§2) Seeds of plant species selected from barnyardgrass (Echinochloa crus-galli), crabgrass (large crabgrass, Digitaria sanguinalis), kochia (Kochia scoparia), ragweed (common ragweed, Ambrosia elatior), morningglory (Ipomoea spp.), velvetleaf (Abutilon theophrasti), ryegrass, Italian (Italian ryegrass, Lolium multiflorum), foxtail, giant (giant foxtail, Setaria faberii), wheat (Triticum aestivum), corn (Zea mays), and pigweed (Amaranthus retroflexus), were planted into a blend of loam soil and sand and treated preemergence with a directed soil spray using test chemicals formulated in a non-phytotoxic solvent mixture which included a surfactant. At the same time, plants selected from these crop and weed species and also blackgrass (Alopecurus myosuroides), and galium (catchweed bedstraw, Galium aparine), were planted in pots containing the same blend of loam soil and sand and treated with postemergence applications of test chemicals formulated in the same manner. Plants ranged in height from 2 to 10 cm and were in the one- to two-leaf stage for the postemergence treatment. Treated plants and untreated controls were maintained in a greenhouse for approximately 10 d, after which time all treated plants were compared to untreated controls and visually evaluated for injury. Plant response ratings, summarized in Table A, are based on a 0 to 100 scale where 0 is no effect and 100 is complete control. A dash (-) response means no test result.

kochia (Kochia scoparia) [5] = assay: Test A preemergence, kochia; settings: visual rating after approx. 10 d, 0 to 100 scale, 0 no effect, 100 complete control
Description: as §2

[6] = test system: ragweed (common ragweed, Ambrosia elatior); assay: Test A preemergence, ragweed; settings: visual rating after approx. 10 d, 0 to 100 scale, 0 no effect, 100 complete control
Description: as §2

[7] = test system: ryegrass, Italian (Italian ryegrass, Lolium multiflorum); assay: Test A preemergence, Italian ryegrass; settings: visual rating after approx. 10 d, 0 to 100 scale, 0 no effect, 100 complete control
Description: as §2

[8] = test system: foxtail, giant (giant foxtail, Setaria faberii); assay: Test A preemergence, giant foxtail; settings: visual rating after approx. 10 d, 0 to 100 scale, 0 no effect, 100 complete control
Description: as §2

[9] = test system: pigweed (Amaranthus retroflexus); assay: Test A preemergence, pigweed; settings: visual rating after approx. 10 d, 0 to 100 scale, 0 no effect, 100 complete control
Description: as §2

[10] = test system: barnyardgrass (Echinochloa crus-galli); assay: Test A postemergence, barnyardgrass; settings: visual rating after approx. 10 d, 0 to 100 scale, 0 no effect, 100 complete control
Description: as §2

kochia (Kochia scoparia) [11] = assay: Test A postemergence, kochia; settings: visual rating after approx. 10 d, 0 to 100 scale, 0 no effect, 100 complete control
Description: as §2

[12] = test system: ragweed (common ragweed, Ambrosia elatior); assay: Test A postemergence, ragweed; settings: visual rating after approx. 10 d, 0 to 100 scale, 0 no effect, 100 complete control
Description: as §2

[13] = test system: ryegrass, Italian (Italian ryegrass, Lolium multiflorum); assay: Test A postemergence, Italian ryegrass; settings: visual rating after approx. 10 d, 0 to 100 scale, 0 no effect, 100 complete control
Description: as §2

[14] = test system: foxtail, giant (giant foxtail, Setaria faberii); assay: Test A postemergence, giant foxtail; settings: visual rating after approx. 10 d, 0 to 100 scale, 0 no effect, 100 complete control
Description: as §2

[15] = test system: wheat (Triticum aestivum); assay: Test A postemergence, wheat; settings: visual rating after approx. 10 d, 0 to 100 scale, 0 no effect, 100 complete control
Description: as §2

corn (Zea mays) = assay: Test A postemergence, corn; settings: visual rating after approx. 10 d, 0 to 100 scale, 0 no effect, 100 complete control
Description: as §2

[16] = test system: pigweed (Amaranthus retroflexus); assay: Test A postemergence, pigweed; settings: visual rating after approx. 10 d, 0 to 100 scale, 0 no effect, 100 complete control
Description: as §2

[17] = test system: blackgrass (Alopecurus myosuroides); assay: Test A postemergence, blackgrass; settings: visual rating after approx. 10 d, 0 to 100 scale, 0 no effect, 100 complete control
Description: as §2

[18] = test system: galium (catchweed bedstraw, Galium aparine); assay: Test A postemergence, galium; settings: visual rating after approx. 10 d, 0 to 100 scale, 0 no effect, 100 complete control
Description: as §2

SMILES | Plant response rating, Flood, Barnyardgrass ([1]; 250 g ai/ha) | Plant response rating, Flood, Barnyardgrass ([1]; 1000 g ai/ha) | Plant response rating, Flood, Ducksalad ([2]; 250 g ai/ha) | Plant response rating, Flood, Ducksalad ([2]; 1000 g ai/ha) | Plant response rating, Flood, Rice (rice (Oryza sativa); 250 g ai/ha) | Plant response rating, Flood, Rice (rice (Oryza sativa); 1000 g ai/ha) | Plant response rating, Flood, Sedge, Umbrella ([3]; 250 g ai/ha) | Plant response rating, Flood, Sedge, Umbrella ([3]; 1000 g ai/ha) | Plant response rating, Barnyardgrass ([4]; 125 g ai/ha) | Plant response rating, Barnyardgrass ([4]; 500 g ai/ha) | Plant response rating, Kochia (kochia (Kochia scoparia) [5]; 125 g ai/ha) | Plant response rating, Kochia (kochia (Kochia scoparia) [5]; 500 g ai/ha) | Plant response rating, Ragweed ([6]; 125 g ai/ha) | Plant response rating, Ragweed ([6]; 500 g ai/ha) | Plant response rating, Ryegrass, Italian ([7]; 125 g ai/ha) | Plant response rating, Ryegrass, Italian ([7]; 500 g ai/ha) | Plant response rating, Foxtail, Giant ([8]; 125 g ai/ha) | Plant response rating, Foxtail, Giant ([8]; 500 g ai/ha) | Plant response rating, Pigweed ([9]; 125 g ai/ha) | Plant response rating, Pigweed ([9]; 500 g ai/ha) | other results
O=C(Nc1cccc(F)c1F)C1C(=O)OCC1c1ccc(C(F)(F)F)cc1 (racemic) [Compound 7] | 0 | 0 | 30 | 40 | 0 | 0 | 0 | 0 | 0 | 30 | 0 | 0 | 0 | 0 | 0 | 0 | 30 | 80 | 0 | 0 | Plant response rating, Barnyardgrass ([10]; 125 g ai/ha): 0; Plant response rating, Barnyardgrass ([10]; 500 g ai/ha): 20; Plant response rating, Kochia (kochia (Kochia scoparia) [11]; 125 g ai/ha): 0; Plant response rating, Kochia (kochia (Kochia scoparia) [11]; 500 g ai/ha): 0; Plant response rating, Ragweed ([12]; 125 g ai/ha): 0; Plant response rating, Ragweed ([12]; 500 g ai/ha): 0; Plant response rating, Ryegrass, Italian ([13]; 125 g ai/ha): 0; Plant response rating, Ryegrass, Italian ([13]; 500 g ai/ha): 0; Plant response rating, Foxtail, Giant ([14]; 125 g ai/ha): 20; Plant response rating, Foxtail, Giant ([14]; 500 g ai/ha): 50; Plant response rating, Wheat ([15]; 125 g ai/ha): 0; Plant response rating, Wheat ([15]; 500 g ai/ha): 0; Plant response rating, Corn (corn (Zea mays); 125 g ai/ha): 0; Plant response rating, Corn (corn (Zea mays); 500 g ai/ha): 0; Plant response rating, Pigweed ([16]; 125 g ai/ha): 0; Plant response rating, Pigweed ([16]; 500 g ai/ha): 0; Plant response rating, Blackgrass ([17]; 125 g ai/ha): 0; Plant response rating, Blackgrass ([17]; 500 g ai/ha): 0; Plant response rating, Galium ([18]; 125 g ai/ha): 0; Plant response rating, Galium ([18]; 500 g ai/ha): 0
O=C(Nc1ccccc1F)C1C(=O)OCC1c1ccc(C(F)(F)F)cc1 (racemic) [Compound 8] | 0 | 0 | 30 | 30 | 0 | 0 | 0 | 0 | 0 | 20 | 0 | 0 | 0 | 0 | 0 | 0 | 20 | 40 | 0 | 0 | Plant response rating, Barnyardgrass ([10]; 125 g ai/ha): 0; Plant response rating, Barnyardgrass ([10]; 500 g ai/ha): 20; Plant response rating, Kochia (kochia (Kochia scoparia) [11]; 125 g ai/ha): 0; Plant response rating, Kochia (kochia (Kochia scoparia) [11]; 500 g ai/ha): 0; Plant response rating, Ragweed ([12]; 125 g ai/ha): 0; Plant response rating, Ragweed ([12]; 500 g ai/ha): 0; Plant response rating, Ryegrass, Italian ([13]; 125 g ai/ha): 0; Plant response rating, Ryegrass, Italian ([13]; 500 g ai/ha): 0; Plant response rating, Foxtail, Giant ([14]; 125 g ai/ha): 20; Plant response rating, Foxtail, Giant ([14]; 500 g ai/ha): 40; Plant response rating, Wheat ([15]; 125 g ai/ha): 0; Plant response rating, Wheat ([15]; 500 g ai/ha): 0; Plant response rating, Corn (corn (Zea mays); 125 g ai/ha): 0; Plant response rating, Corn (corn (Zea mays); 500 g ai/ha): 0; Plant response rating, Pigweed ([16]; 125 g ai/ha): 0; Plant response rating, Pigweed ([16]; 500 g ai/ha): 0; Plant response rating, Blackgrass ([17]; 125 g ai/ha): 0; Plant response rating, Blackgrass ([17]; 500 g ai/ha): 0; Plant response rating, Galium ([18]; 125 g ai/ha): 0; Plant response rating, Galium ([18]; 500 g ai/ha): 0
O=C(Nc1ccccc1C(F)(F)F)C1C(=O)OCC1c1ccc(C(F)(F)F)cc1 (racemic) [Compound 9] | 0 | 0 | 30 | 30 | 0 | 0 | 0 | 0 | 0 | 0 | 0 | 20 | 0 | 0 | 0 | 20 | 30 | 80 | 0 | 0 | Plant response rating, Barnyardgrass ([10]; 125 g ai/ha): 0; Plant response rating, Barnyardgrass ([10]; 500 g ai/ha): 0; Plant response rating, Kochia (kochia (Kochia scoparia) [11]; 125 g ai/ha): 0; Plant response rating, Kochia (kochia (Kochia scoparia) [11]; 500 g ai/ha): 0; Plant response rating, Ragweed ([12]; 125 g ai/ha): 0; Plant response rating, Ragweed ([12]; 500 g ai/ha): 0; Plant response rating, Ryegrass, Italian ([13]; 125 g ai/ha): 0; Plant response rating, Ryegrass, Italian ([13]; 500 g ai/ha): 0; Plant response rating, Foxtail, Giant ([14]; 125 g ai/ha): 30; Plant response rating, Foxtail, Giant ([14]; 500 g ai/ha): 70; Plant response rating, Wheat ([15]; 125 g ai/ha): 0; Plant response rating, Wheat ([15]; 500 g ai/ha): 0; Plant response rating, Corn (corn (Zea mays); 125 g ai/ha): 0; Plant response rating, Corn (corn (Zea mays); 500 g ai/ha): 0; Plant response rating, Pigweed ([16]; 125 g ai/ha): 0; Plant response rating, Pigweed ([16]; 500 g ai/ha): 0; Plant response rating, Blackgrass ([17]; 125 g ai/ha): 0; Plant response rating, Blackgrass ([17]; 500 g ai/ha): 0; Plant response rating, Galium ([18]; 125 g ai/ha): 0; Plant response rating, Galium ([18]; 500 g ai/ha): 0
O=C(Nc1cccc(F)c1C(F)(F)F)C1C(=O)OCC1c1ccc(C(F)(F)F)cc1 (racemic) [Compound 10] | 0 | 0 | 20 | 25 | 0 | 0 | 0 | 0 | 0 | 0 | 0 | 0 | 0 | 0 | 0 | 0 | 40 | 50 | 0 | 0 | Plant response rating, Barnyardgrass ([10]; 125 g ai/ha): 0; Plant response rating, Barnyardgrass ([10]; 500 g ai/ha): 0; Plant response rating, Kochia (kochia (Kochia scoparia) [11]; 125 g ai/ha): 0; Plant response rating, Kochia (kochia (Kochia scoparia) [11]; 500 g ai/ha): 0; Plant response rating, Ragweed ([12]; 125 g ai/ha): 0; Plant response rating, Ragweed ([12]; 500 g ai/ha): 0; Plant response rating, Ryegrass, Italian ([13]; 125 g ai/ha): 0; Plant response rating, Ryegrass, Italian ([13]; 500 g ai/ha): 0; Plant response rating, Foxtail, Giant ([14]; 125 g ai/ha): 30; Plant response rating, Foxtail, Giant ([14]; 500 g ai/ha): 70; Plant response rating, Wheat ([15]; 125 g ai/ha): 0; Plant response rating, Wheat ([15]; 500 g ai/ha): 0; Plant response rating, Corn (corn (Zea mays); 125 g ai/ha): 0; Plant response rating, Corn (corn (Zea mays); 500 g ai/ha): 0; Plant response rating, Pigweed ([16]; 125 g ai/ha): 0; Plant response rating, Pigweed ([16]; 500 g ai/ha): 0; Plant response rating, Blackgrass ([17]; 125 g ai/ha): 0; Plant response rating, Blackgrass ([17]; 500 g ai/ha): 0; Plant response rating, Galium ([18]; 125 g ai/ha): 0; Plant response rating, Galium ([18]; 500 g ai/ha): 0

— patent US10582709B2, “Butyrolactones as herbicides” (FMC Corporation, priority 2015, dated 2020)
